Experimental findings from US20230099344A1, “COMPOUNDS AND METHODS FOR THE TARGETED DEGRADATION OF IRAK-4” (Arvinas Operations, Inc., priority 2021, published 2023) are described below.

Molecules are shown by their SMILES.

Common to all, as to format: cell-based
Assay [1] deals with IL6. Briefly: R848 stimulated IL6 inhibition assay in PBMC. The settings on record: human PBMCs, R848 stimulation, compound overnight, IL6 by MSD after 24 hrs; for Dmax: Homo sapiens, 24 h, read-out: R848 stim IL6 inhibition Dmax; for IC50: read-out: R848 stim IL6 inhibition IC50. The procedure, abridged: (§1)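 Human PBMC at 2.0×10^6 cells/mL were pre-treated with compound overnight, then stimulated with IL-1β, LPS or R848, each at the donor-specific EC50 concentration. After 24 hrs, supernatant IL6 and/or IL8 was measured by MSD.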

Assay [2] deals with IL6. Briefly: LPS stimulated IL6 inhibition assay in PBMC. The settings on record: human PBMCs, LPS stimulation, compound overnight, IL6 by MSD after 24 hrs; for Dmax: read-out: LPS Stim IL6 inhibition Dmax; for IC50: read-out: LPS stim IL6 inhibition IC50. The gist of the method: as §1
Another assay deals with T1, IRAK-4 (Homo sapiens, UniProt Q9NWZ3).
T1 sequence (Q9NWZ3 1-460): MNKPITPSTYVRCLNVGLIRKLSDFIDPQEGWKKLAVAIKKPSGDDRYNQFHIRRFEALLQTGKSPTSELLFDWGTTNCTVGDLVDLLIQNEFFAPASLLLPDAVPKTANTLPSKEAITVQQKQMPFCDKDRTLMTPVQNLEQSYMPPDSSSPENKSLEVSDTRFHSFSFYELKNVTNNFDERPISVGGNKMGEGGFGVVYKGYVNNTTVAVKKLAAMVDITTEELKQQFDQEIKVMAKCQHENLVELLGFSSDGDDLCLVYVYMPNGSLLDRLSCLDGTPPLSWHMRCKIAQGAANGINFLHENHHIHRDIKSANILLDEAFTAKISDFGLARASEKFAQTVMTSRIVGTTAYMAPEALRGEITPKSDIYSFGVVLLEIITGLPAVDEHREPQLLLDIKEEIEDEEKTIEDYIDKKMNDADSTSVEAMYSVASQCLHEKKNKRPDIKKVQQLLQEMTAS
Briefly: IRAK-4 ELISA, PBMC degradation. Details: endogenous in cells; host or cells: PBMC. The conditions noted are these: treated overnight. The procedure, abridged:
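Steps: seed cells (OCI-Ly10 1×10^6/ml; PBMC 2×10^6/ml); add compound the same day; incubate overnight; lyse; quantify IRAK-4 by matched-pair ELISA.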
(In general: An ELISA detects its analyte on a solid surface through an enzyme-linked reagent.)

Broadly, the IC50 is the concentration at which inhibition is half-maximal. What is called DC50 is the concentration at which degradation of the target reaches its halfway point. Low readings indicate a more potent degrader, high ones a less potent degrader. As for `CC(C)Oc1cc2c(cc1NC(=O)c1cnn3cccnc13)CN(C1CCN(CC3CN(c4cccc5c4n(C)c(=O)n5C4CCC(=O)NC4=O)C3)CC1)C2=O` (stereo not shown) [Example 381], in the assay on IL6 [1] (PBMC), the Dmax is no less than 90% and the IC50 lay in the range of 10 to 50 nM. Also, in the assay with IL6 [2] (Homo sapiens, PBMC, 24 h), the Dmax fell in the range of 70 to 80% and the IC50 is less than 10 nM. On IRAK-4, the 50% degradation concentration (DC50) is less than 1 nM, the Dmax was no less than 90% and the “PBMC DC90” value is reported as “A (A represents a DC90 value <10.0 nM)”.

`C=Nc1c(C(=O)Nc2cc3cn(C4CCN(CC5(F)CN(c6cccc7c6n(C)c(=O)n7C6CCC(=O)NC6=O)C5)CC4)nc3cc2C2CC2)cnn1/C=C\C` (stereo not shown) [Example 389]: in the assay on IL6 [1] (PBMC), the Dmax was no less than 90% and the IC50 lay within 10 to 50 nM. Moreover, in the assay on IL6 [2] (Homo sapiens, PBMC, 24 h), the Dmax is no less than 90% and the IC50 is no less than 100 nM. Moreover, on IRAK-4, the DC50 is less than 1 nM, the Dmax fell in the range of 80 to 90% and the “PBMC DC90” value is listed as “A (A represents a DC90 value <10.0 nM)”.

For `O=C1CCC(N2Cc3ccc(N4CC(F)(CN5CCC(n6cc7cc(NC(=O)c8cnn9cccnc89)c(OCC8CC8)cc7n6)CC5)C4)cc3C2=O)C(=O)N1` (stereo not shown) [Example 245], in the assay on IL6 [1] (PBMC), the Dmax was no less than 90% and the IC50 was less than 10 nM. Moreover, in the assay with IL6 [2] (Homo sapiens, PBMC, 24 h), the Dmax is 80 to 90% and the IC50 was in the range of 10 to 50 nM. Besides, at IRAK-4, the DC50 was 1 to 5 nM, the Dmax is 70 to 80% and the “PBMC DC90” value was “A (A represents a DC90 value <10.0 nM)”.

`CCN([C@H]1CC[C@H](n2cc3cc(NC(=O)c4cnn5cccnc45)c(OCC4CC4)cc3n2)CC1)[C@H]1C[C@H](Oc2ccc3c(c2)C(=O)N(C2CCC(=O)NC2=O)C3=O)C1` (stereo partly shown) [Example 373]: in the assay on IL6 [1] (PBMC), the Dmax fell in the range of 80 to 90% and the IC50 was in the range of 10 to 50 nM. In the assay on IL6 [2] (Homo sapiens, PBMC, 24 h), the Dmax was 70 to 80% and the IC50 fell in the range of 10 to 50 nM. Besides, on IRAK-4, the DC50 was less than 1 nM, the Dmax is no less than 90% and the “PBMC DC90” value is recorded as “A (A represents a DC90 value <10.0 nM)”.

As to `O=C1CCC(N2C(=O)c3ccc(N4CCCC5(CN(CCN6CCC(n7cc8cc(NC(=O)c9cnn%10cccnc9%10)c(OCC9CC9)cc8n7)CC6)C5)C4)cc3C2=O)C(=O)N1` (stereo not shown) [Example 248], in the assay with IL6 [1] (PBMC), the Dmax was no less than 90% and the IC50 is 10 to 50 nM. Besides, in the assay on IL6 [2] (Homo sapiens, PBMC, 24 h), the Dmax was less than 70% and the IC50 is 10 to 50 nM. Moreover, at IRAK-4, the DC50 is 1 to 5 nM, the Dmax was less than 70% and the “PBMC DC90” value was “A (A represents a DC90 value <10.0 nM)”.

Take `O=C1CCC(N2C(=O)c3ccc(N4CC[C@H](O[C@H]5CC[C@@H](n6cc7cc(NC(=O)c8cnn9cccnc89)c(OCC8CC8)cc7n6)CC5)C4)cc3C2=O)C(=O)N1` (stereo partly shown) [Example 428]: in the assay with IL6 [1], the “R848 stim IL6 inhibition Dmax” value is recorded as “A (A represents a Ymax value ≥90)” and the IC50 was in the range of 10 to 50 nM. In the assay with IL6 [2], the “LPS Stim IL6 inhibition Dmax” value was “D (D represents a Ymax value <70)” and the IC50 lay in the range of 10 to 50 nM. Also, at IRAK-4, the DC50 lay in the range of 1 to 5 nM; the Dmax was no less than 90%; the “PBMC DC90” value is “B (B represents a DC90 value ≥10.0 nM and <25.0 nM)”.

On to `O=C1CCC(N2C(=O)c3ccc(N4CCN(C[C@H]5CC[C@H](n6cc7cc(NC(=O)c8cnn9cccnc89)c(OCC(F)F)cc7n6)CC5)CC4)cc3C2=O)C(=O)N1` (stereo partly shown) [Example 430], for which, in the assay with IL6 [1] (PBMC), the Dmax was no less than 90% and the IC50 is 10 to 50 nM. In the assay on IL6 [2] (Homo sapiens, PBMC, 24 h), the Dmax lay in the range of 70 to 80% and the IC50 lay in the range of 10 to 50 nM. Also, at IRAK-4, the DC50 fell in the range of 1 to 5 nM, the Dmax was no less than 90% and the “PBMC DC90” value was “A (A represents a DC90 value <10.0 nM)”.

With `O=C1CCC(N2C(=O)c3ccc(N4CCC5(CC4)CN(CCN4CCC(n6cc7cc(NC(=O)c8cnn9cccnc89)c(OCC8CC8)cc7n6)CC4)C5)cc3C2=O)C(=O)N1` (stereo not shown) [Example 249], in the assay with IL6 [1] (PBMC), the Dmax is 80 to 90% and the IC50 lay in the range of 10 to 50 nM. In the assay with IL6 [2] (Homo sapiens, PBMC, 24 h), the Dmax is less than 70% and the half-maximal inhibitory concentration (IC50) is no less than 100 nM. Besides, at IRAK-4, the DC50 is 1 to 5 nM, the Dmax is no less than 90% and the “PBMC DC90” value is listed as “A (A represents a DC90 value <10.0 nM)”.

Regarding `O=C1CCC(NC(=O)c2ccc(N3CCC(CN4CCC(N5Cc6cc(NC(=O)c7cnn8cccnc78)c(N7CCC(N8CCC8)CC7)cc6C5=O)CC4)CC3)cc2F)C(=O)N1` (stereo not shown) [Example 310], in the assay with IL6 [1] (PBMC), the Dmax is no less than 90% and the IC50 lay in the range of 50 to 100 nM. In the assay with IL6 [2] (Homo sapiens, PBMC, 24 h), the Dmax lay in the range of 70 to 80% and the IC50 is no less than 100 nM. In addition, at IRAK-4, the DC50 was in the range of 1 to 5 nM, the Dmax was no less than 90% and the “PBMC DC90” value is reported as “A (A represents a DC90 value <10.0 nM)”.

For the compound `CN(C1CN(c2ccc3c(c2)CN(C2CCC(=O)NC2=O)C3=O)C1)[C@H]1CC[C@H](n2cc3cc(NC(=O)c4cnn5cccnc45)c(OCC(F)F)cc3n2)CC1` (stereo partly shown) [Example 363], in the assay with IL6 [1] (PBMC), the Dmax is no less than 90% and the IC50 is 10 to 50 nM. Further, in the assay with IL6 [2] (Homo sapiens, PBMC, 24 h), the Dmax is 70 to 80% and the IC50 is 10 to 50 nM. For the same compound, on IRAK-4, the DC50 was less than 1 nM, the Dmax is no less than 90% and the “PBMC DC90” value was “A (A represents a DC90 value <10.0 nM)”.

As to `CN(C1CN(c2ccc3c(c2F)CN(C2CCC(=O)NC2=O)C3=O)C1)[C@H]1CC[C@H](n2cc3cc(NC(=O)c4cnn5cccnc45)c(OCC(F)F)cc3n2)CC1` (stereo partly shown) [Example 362], in the assay on IL6 [1] (PBMC), the Dmax is no less than 90% and the IC50 is less than 10 nM. Also, in the assay with IL6 [2] (Homo sapiens, PBMC, 24 h), the Dmax lay within 70 to 80% and the IC50 is 10 to 50 nM. Besides, on IRAK-4, the DC50 was less than 1 nM, the Dmax was no less than 90% and the “PBMC DC90” value is given as “A (A represents a DC90 value <10.0 nM)”.

On to `CC(C)Oc1cc2nn(C3CCN(CC4CN(c5ccc(F)c(C(=O)NC6CCC(=O)NC6=O)c5)C4)CC3)cc2cc1NC(=O)c1cnn2cccnc12` (stereo not shown) [Example 307], for which, in the assay on IL6 [1] (PBMC), the Dmax was in the range of 80 to 90% and the IC50 is no less than 100 nM. Also, in the assay on IL6 [2] (Homo sapiens, PBMC, 24 h), the half-maximal inhibitory concentration (IC50) is no less than 100 nM. At IRAK-4, the DC50 is no less than 10 nM and the “PBMC DC90” value was “D (D represents a DC90 value ≥50 nM)”.

As to `O=C1CCC(N2Cc3cc(N4CCC(CN5CCC(n6cc7cc(NC(=O)c8cnn9cccnc89)c(N8CCN(CC(F)F)CC8)cc7n6)CC5)CC4)ccc3C2=O)C(=O)N1` (stereo not shown) [Example 157], in the assay on IL6 [1] (PBMC), the Dmax was no less than 90% and the IC50 was 10 to 50 nM. For the same compound, in the assay on IL6 [2] (Homo sapiens, PBMC, 24 h), the Dmax was in the range of 70 to 80% and the IC50 was in the range of 10 to 50 nM. Moreover, on IRAK-4, the DC50 is less than 1 nM, the Dmax is no less than 90% and the “PBMC DC90” value is “A (A represents a DC90 value <10.0 nM)”.

`O=C1CCC(N2C(=O)c3ccc(N4CCC(O)(CN5CCC(n6cc7cc(NC(=O)c8cnn9cccnc89)c(OCC8CC8)cc7n6)CC5)CC4)cc3C2=O)C(=O)N1` (stereo not shown) [Example 257]: in the assay with IL6 [1] (PBMC), the Dmax is no less than 90% and the IC50 lay in the range of 10 to 50 nM. In addition, in the assay with IL6 [2] (Homo sapiens, PBMC, 24 h), the Dmax lay in the range of 70 to 80% and the IC50 lay within 10 to 50 nM. In addition, at IRAK-4, the DC50 lay in the range of 1 to 5 nM, the Dmax is no less than 90% and the “PBMC DC90” value is recorded as “A (A represents a DC90 value <10.0 nM)”.

Regarding `O=C1CCC(N2Cc3cc(N4CCC(CN5CCC(N6Cc7cc(NC(=O)c8cnn9cccnc89)c(N8CCN(C9CC(F)(F)C9)CC8)cc7C6=O)CC5)CC4)ccc3C2=O)C(=O)N1` (stereo not shown) [Example 54], in the assay on IL6 [1] (PBMC), the Dmax fell in the range of 80 to 90% and the IC50 is 10 to 50 nM. Moreover, in the assay on IL6 [2] (Homo sapiens, PBMC, 24 h), the Dmax was less than 70% and the IC50 is less than 10 nM. Further, at IRAK-4, the DC50 lay in the range of 1 to 5 nM, the Dmax is no less than 90% and the “PBMC DC90” value is listed as “A (A represents a DC90 value <10.0 nM)”.
